According to patent US20100144710A1, “Piperazine and Piperidine MGLUR5 Potentiators” (ASTRAZENECA AB, priority 2007, published 2010):

Each compound was assayed against T1, human mGluR5d (Homo sapiens, UniProt P41594) (assay: intracellular calcium [Ca2+]i mobilization (FLIPR) functional assay in cells expressing mGluR5). Details: potentiators of mGluR5; 'assays described herein', assay not specified (FLIPR or IP3 turnover).
T1 construct: expressed in transfected cells
Type: cell-based
Source text: The pharmacological properties of the compounds of the invention can be analyzed using standard assays for functional activity. Examples of glutamate receptor assays are well known in the art as described in for example Aramori et al., Neuron 8:757 (1992), Tanabe et al., Neuron 8:169 (1992), Miller et al., J. Neuroscience 15: 6103 (1995), Balazs, et al., J. Neurochemistry 69:151 (1997). The methodology described in these publications is incorporated herein by reference. Conveniently, the compounds of the invention can be studied by means of an assay that measures the mobilization of intracellular calcium, [Ca^2+]i in cells expressing mGluR5.
Intracellular calcium mobilization was measured by detecting changes in fluorescence of cells loaded with the fluorescent indicator fluo-3. Fluorescent signals were measured using the FLIPR system (Molecular Devices). A two addition experiment was used that could detect compounds that either activate or antagonize the receptor.
For FLIPR analysis, cells expressing human mGluR5d were seeded on collagen coated clear bottom 96-well plates with black sides and analysis of [Ca^2+]i mobilization was done 24 hours after seeding.
FLIPR experiments were performed using a laser setting of 0.800 W and a 0.4 second CCD camera shutter speed. Each FLIPR experiment was initiated with 160 μL of buffer present in each well of the cell plate. After each addition of the compound, the fluorescence signal was sampled 50 times at 1 second intervals followed by 3 samples at 5 second intervals. Responses were measured as the peak height of the response within the sample period.
EC50 and IC50 determinations were made from data obtained from 8-point concentration response curves (CRC) performed in duplicate. Agonist CRC were generated by scaling all responses to the maximal response observed for the plate. Antagonist block of the agonist challenge was normalized to the average response of the agonist challenge in 14 control wells on the same plate.

T1 sequence (P41594 21-942 isoform P41594-3 limits assumed): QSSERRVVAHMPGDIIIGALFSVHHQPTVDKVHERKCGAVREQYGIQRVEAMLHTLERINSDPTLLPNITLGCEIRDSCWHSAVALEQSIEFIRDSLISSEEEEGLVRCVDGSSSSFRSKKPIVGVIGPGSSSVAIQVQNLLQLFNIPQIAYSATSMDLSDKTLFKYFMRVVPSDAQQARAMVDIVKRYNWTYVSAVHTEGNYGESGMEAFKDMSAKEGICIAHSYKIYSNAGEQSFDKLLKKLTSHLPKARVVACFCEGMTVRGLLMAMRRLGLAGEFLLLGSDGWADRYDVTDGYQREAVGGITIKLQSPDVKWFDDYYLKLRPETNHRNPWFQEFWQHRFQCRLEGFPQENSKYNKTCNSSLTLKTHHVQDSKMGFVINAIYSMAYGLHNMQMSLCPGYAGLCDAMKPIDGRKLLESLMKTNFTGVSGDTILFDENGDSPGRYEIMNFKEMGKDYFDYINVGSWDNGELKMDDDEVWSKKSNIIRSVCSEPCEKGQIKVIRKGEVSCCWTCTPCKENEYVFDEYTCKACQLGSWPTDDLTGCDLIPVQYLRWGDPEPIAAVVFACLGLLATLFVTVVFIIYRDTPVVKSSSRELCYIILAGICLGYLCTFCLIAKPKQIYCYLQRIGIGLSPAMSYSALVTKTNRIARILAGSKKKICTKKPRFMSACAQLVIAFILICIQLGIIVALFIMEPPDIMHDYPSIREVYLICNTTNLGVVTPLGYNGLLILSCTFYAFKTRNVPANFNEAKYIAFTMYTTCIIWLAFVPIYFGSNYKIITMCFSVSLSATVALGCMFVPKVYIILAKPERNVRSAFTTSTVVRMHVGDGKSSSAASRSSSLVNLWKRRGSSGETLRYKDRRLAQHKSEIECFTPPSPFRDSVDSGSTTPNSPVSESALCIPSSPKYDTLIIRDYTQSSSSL

SMILES | EC50
CCCCOc1ccc(CC(=O)N2CCN(c3ncccc3C#N)CC2)cc1 [Compound 1, 2-{4-[2-(4-Butoxy-phenyl)-acetyl]-piperazin-l-yl}-nicotinonitrile] | 5.1 µM
N#Cc1cccnc1N1CCN(C(=O)Cc2ccc(OCc3ccccn3)cc2)CC1 [Compound 45, 2-(4-{2-[4′-(Pyridin-2-ylmethoxy)-phenyl]-acetyl}-piperazin-1-yl)-nicotinonitrile] | 3.4 µM
CCCOc1ccc(CC(=O)N2CCN(c3ncccc3C#N)CC2)cc1 [Compound 16, 2-{4-[2-(4-Propoxy-phenyl)-acetyl]-piperazin-1-yl}-nicotinonitrile] | 2.8 µM
N#Cc1cccnc1N1CCN(C(=O)COc2ccccc2)CC1 [Compound 12, 2-[4-(2-Phenoxy-acetyl)-piperazin-1-yl]-nicotinonitrile] | 3.5 µM
CCCCc1ccc(N(CC(=O)N2CCN(c3nccnc3C#N)CC2)S(C)(=O)=O)cc1 [Compound 44, N-(4-Butyl-phenyl)-N-{2-(3′-cyano-2,3,5,6-tetrahydro-[1,2]bipyrazinyl-4-yl)-2-oxo-ethyl]-methanesulfonamide] | 5.6 µM
